The experiment concerns the target Recombinant human cathepsin A (Homo sapiens (Human), UniProt P10619). Briefly: Cathepsin A inhibitory activity (cleavage of Bodipy FL-labeled bradykinin, microfluidic capillary electrophoresis). It is filed as biochemical.
The mark [1] stands for this setting: read-out: Activity [μM] (IC50, cathepsin A inhibitory activity).
Setting [2] is: read-out: Activity (IC50, cathepsin A inhibitory activity).
Setting [3] is: read-out: Activity (IC50, cathepsin A inhibition).
[4] abbreviates: read-out: Activity (Cathepsin A inhibitory activity, IC50).

Where two headings read alike, the source gives them in different places. A value given as a limit tells only on which side of the number the result lay.

Sequence of Recombinant human cathepsin A (P10619 29-326): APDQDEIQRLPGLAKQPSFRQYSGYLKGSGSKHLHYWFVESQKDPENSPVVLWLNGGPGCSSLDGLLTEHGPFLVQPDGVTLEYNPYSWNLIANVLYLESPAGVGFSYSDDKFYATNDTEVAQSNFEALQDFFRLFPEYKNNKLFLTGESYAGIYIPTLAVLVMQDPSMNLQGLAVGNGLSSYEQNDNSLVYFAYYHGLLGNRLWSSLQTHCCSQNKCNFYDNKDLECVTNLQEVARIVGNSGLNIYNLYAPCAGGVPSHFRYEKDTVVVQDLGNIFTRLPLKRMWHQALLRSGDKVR
Sequence of Recombinant human cathepsin A (P10619 327-480): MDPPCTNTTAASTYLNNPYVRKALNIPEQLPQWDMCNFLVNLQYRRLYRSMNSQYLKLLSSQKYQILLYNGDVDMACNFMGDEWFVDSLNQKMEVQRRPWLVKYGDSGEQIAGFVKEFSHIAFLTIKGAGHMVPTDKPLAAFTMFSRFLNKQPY

The term IC50 denotes the midpoint of a concentration-inhibition curve. For `COc1ccc(C(=O)N[C@@H](CC(=O)O)c2ccccc2C)nc1-c1ccccc1C(=O)N(C)C` [compound 374], the IC50 under setting [1] was determined as 2.48 µM.

As to `COc1ccc(C(=O)N[C@@H](CC(=O)O)c2ccccc2Cl)nc1-c1cccc(C(F)(F)F)c1` [compound 329], under setting [1], the IC50 worked out at 3.74 µM.

Turning to `COc1ncc(C(=O)N[C@@H](CC(=O)O)c2ccccc2C)cc1-c1ccc(F)c(F)c1` [compound 425], the IC50 under setting [2] came to 8.84 µM.

For the compound `O=C(O)C[C@H](NC(=O)c1cccc(-c2ccccc2Cl)n1)c1cccc(F)c1` [compound 587], under setting [3], the IC50 is 7.35 µM.

Consider `COc1ccc(C(C)(C)C)cc1-c1nc(C(=O)N[C@@H](CC(=O)O)c2ccccc2Cl)ccc1OC` [compound 475], for which the IC50 under setting [2] was > 10 µM.

As for `Cc1ccccc1[C@H](CC(=O)O)NC(=O)c1cncc(-c2ccc(F)cc2F)c1` [compound 73], the half-maximal inhibitory concentration (IC50) under setting [2] was 3.25 µM.

In the case of `COc1ccc(C(=O)NC(CC(=O)O)c2ccccc2Cl)nc1Br` (stereo not drawn) [compound 598, 3-[(6-Bromo-5-methoxy-pyridine-2-carbonyl)-amino]-3-(2-chloro-phenyl)-propionic acid], the IC50 under setting [4] turned out to be 1.46 µM.

As to `C[C@@](CC(=O)O)(NC(=O)c1cccc(-c2ccccc2Cl)n1)c1ccccc1` [compound 581], under setting [3], the IC50 amounted to 5.76 µM.

Consider `COc1cc(C(=O)N[C@@H](CC(=O)O)c2ccccc2C)nc(OC)n1` [compound 16, (S)-3-[(2,6-Dimethoxy-pyrimidine-4-carbonyl)-amino]-3-o-tolyl-propionic acid], for which, under setting [2], the IC50 was 1.05 µM.

Consider `COc1ccc(C(=O)N[C@@H](CC(=O)O)c2ccccc2F)nc1-c1ccc(Cl)cc1` [compound 258], for which the concentration for half-maximal inhibition (IC50) under setting [2] was 5.27 µM.

With `COc1ccc(C(=O)N[C@@H](CC(=O)O)c2ccccc2C)nc1-c1ccc(C(C)=O)s1` [compound 364], the IC50 under setting [1] amounted to 9.25 µM.

For `COc1ncc(C(=O)N[C@@H](CC(=O)O)c2ccccc2C)cc1-c1ccc(C#N)cc1` [compound 421], under setting [2], the 50% inhibitory concentration (IC50) is 10.4 µM.

In the case of `Cc1ccc([C@H](CC(=O)O)NC(=O)c2cccc(-c3ccccc3Cl)n2)cc1` [compound 580], the IC50 under setting [3] stood at 15.6 µM.

`COc1ccc(C(=O)N[C@@H](CC(=O)O)c2ccccc2F)nc1-c1cccc(C(C)(C)O)c1` [compound 327]: under setting [1], the IC50 came out at 7.32 µM.

With `COc1ccc(C(=O)N[C@@H](CC(=O)O)c2ccccc2F)nc1-c1ccccc1C(=O)N(C)C` [compound 295], under setting [2], the IC50 was 4.51 µM.

Regarding `Cc1ccccc1[C@H](CC(=O)O)NC(=O)c1cncc(-c2ccc3c(c2)OCO3)c1` [compound 76], under setting [2], the IC50 was 8.04 µM.

`COc1ccc(C(=O)N[C@@H](CC(=O)O)c2ccccc2C)nc1-c1ccc(C)o1` [compound 376]: under setting [1], the IC50 was 6.1 µM.

For the compound `COc1ccc(C(=O)N[C@@H](CC(=O)O)c2ccccc2F)nc1-c1ccc(F)c(F)c1` [compound 280], the IC50 under setting [2] is 3.12 µM.

As to `COc1ccc(C(=O)N[C@@H](CC(=O)O)c2ccccc2C)nc1-c1ccc(F)c(Cl)c1` [compound 349], under setting [1], the IC50 came out at 1.46 µM.

For `COc1ccc(C(=O)N[C@@H](CC(=O)O)c2ccccc2C)nc1-c1ccncc1` [compound 365], the IC50 under setting [1] turned out to be 5.45 µM.

Regarding `COc1ccc(C(=O)N[C@@H](CC(=O)O)c2ccccc2C)nc1-c1cccc(-c2nnc(C)o2)c1` [compound 471, (S)-3-({5-Methoxy-6-[3-(5-methyl-[1,3,4]oxadiazol-2-yl)-phenyl]-pyridine-2-carbonyl}-amino)-3-o-tolyl-propionic acid], the IC50 under setting [2] amounted to 4.23 µM.

Consider `COc1ccc(C(=O)N[C@@H](CC(=O)O)c2ccccc2C)nc1-c1cccc(C#N)c1` [compound 359], for which the IC50 under setting [1] worked out at 4.49 µM.

On to `Cc1ccccc1[C@H](CC(=O)O)NC(=O)c1cccc(-c2cccc(F)c2C)n1` [compound 172], for which the IC50 under setting [1] came out at 3.21 µM.

With `COc1ccc(C(=O)N[C@@H](CC(=O)O)c2ccccc2F)nc1-c1cccc(-c2nnc(C)o2)c1` [compound 316], the IC50 under setting [1] is > 10 µM.

Take `O=C(O)CC(NC(=O)c1nc(Cl)ccc1Cl)c1ccc(-c2ccccc2)cc1` (stereo not drawn) [compound 498]: the IC50 under setting [3] turned out to be 8.55 µM.

With `Cc1ccccc1[C@H](CC(=O)O)NC(=O)c1cncc(-c2ccccc2)c1` [compound 15], the IC50 under setting [2] was 2.16 µM.

In the case of `Cc1cc(C(=O)N[C@@H](CC(=O)O)c2ccccc2C)nc(C)n1` [compound 55], under setting [2], the IC50 came out at 5.26 µM.

As to `COc1ccc(C(=O)N[C@@H](CC(=O)O)c2ccc(C)cc2)nc1-c1ccc(Cl)c(F)c1` [compound 246], under setting [2], the IC50 turned out to be 4.48 µM.

On to `Cc1ccc(-c2cccc(C(=O)N[C@@H](CC(=O)O)c3ccccc3C)n2)c(C)c1` [compound 162], for which the IC50 under setting [1] worked out at 1.43 µM.

For the compound `COc1ccc(C(=O)N[C@@H](CC(=O)O)c2ccccc2C)nc1-c1cccc(C(C)=O)c1` [compound 360], the IC50 under setting [1] amounted to 2.42 µM.

In the case of `COc1cccc(-c2nc(C(=O)N[C@@H](CC(=O)O)c3ccccc3Cl)ccc2OC)c1` [compound 339], the half-maximal inhibitory concentration (IC50) under setting [1] is 2.78 µM.

Regarding `COc1ccc(C(=O)N[C@@H](CC(=O)O)c2ccc(C)cc2)nc1-c1ccc(F)c(C)c1` [compound 225], under setting [2], the IC50 is 3.26 µM.

In the case of `Cc1ccccc1[C@H](CC(=O)O)NC(=O)c1nc(Cl)ccc1Cl` [compound 506], under setting [3], the IC50 was found to be 8.48 µM.

As for `Cc1cc(F)c(-c2cccc(C(=O)N[C@@H](CC(=O)O)c3ccccc3C)n2)cc1Cl` [compound 175], under setting [1], the IC50 amounted to 2.36 µM.

On to `COc1ccc(C(=O)N[C@@H](CC(=O)O)c2ccccc2Cl)nc1-c1cccc(-c2nnc(C)o2)c1` [compound 484], for which the IC50 under setting [2] was 6.69 µM.

`Cc1ccccc1[C@H](CC(=O)O)NC(=O)c1cccc(-c2ccc(F)c(Cl)c2)n1` [compound 134]: the IC50 under setting [1] worked out at 3.62 µM.

For `COc1ccc(C(=O)N[C@@H](CC(=O)O)c2ccc(C)cc2)nc1-c1cccc(C(F)(F)F)c1` [compound 181], the IC50 under setting [1] came out at 5 µM.

With `COc1cccnc1C(=O)N[C@@H](CC(=O)O)c1ccccc1C` [compound 9], under setting [2], the IC50 is 7.25 µM.

Consider `O=C(O)CC(NC(=O)c1cc(Sc2ncccn2)ccn1)c1ccccc1Cl` (stereo not drawn) [compound 601], for which, under setting [4], the IC50 amounted to 3.85 µM.

Consider `COc1ncc(C(=O)N[C@@H](CC(=O)O)c2ccccc2Cl)cc1-c1ccc(C)cc1` [compound 388], for which the IC50 under setting [1] was 7.12 µM.

On to `COc1ccc(-c2nc(C(=O)N[C@@H](CC(=O)O)c3ccc(C)cc3)ccc2OC)cc1` [compound 187], for which the IC50 under setting [1] was found to be 4.85 µM.

`Cc1ccccc1[C@H](CC(=O)O)NC(=O)c1cccc(-c2ccc(C#N)cc2)n1` [compound 146]: under setting [1], the IC50 worked out at 2.16 µM.

For `COc1ccc(OC)c(-c2nc(C(=O)N[C@@H](CC(=O)O)c3ccccc3Cl)ccc2OC)c1` [compound 461], the IC50 under setting [2] was determined as 8.31 µM.

Turning to `COc1ccc(Cl)cc1-c1nc(C(=O)N[C@@H](CC(=O)O)c2ccccc2Cl)ccc1OC` [compound 459], the IC50 under setting [2] came to 1.15 µM.

`COc1ncc(C(=O)N[C@@H](CC(=O)O)c2ccccc2Cl)cc1-c1cccc(-c2ccccc2)c1` [compound 400]: the half-inhibitory concentration (IC50) under setting [2] was > 10 µM.

Regarding `Cc1ccccc1[C@H](CC(=O)O)NC(=O)c1ccnc(-c2cccc(Cl)c2Cl)c1` [compound 123], under setting [1], the IC50 is 3.7 µM.

For `O=C(O)CC(NC(=O)c1cccc(-c2ccccc2F)n1)c1ccccc1Cl` (stereo not drawn) [compound 589], under setting [3], the IC50 amounted to 4.89 µM.

For `COc1ccc(C(=O)N[C@@H](CC(=O)O)c2ccccc2Cl)nc1-c1ccnc(N2CCOCC2)c1` [compound 490], the IC50 under setting [2] is 9.08 µM.

The values are drawn from patent publication US9029559B2, “Substituted 3-heteroaroylamino-propionic acid derivatives and their use as pharmaceuticals” (SANOFI, priority 2011, dated 2015).
